Each structure is given as a SMILES string. Where “and” joins values, the source holds several entries; their conditions need not be identical. Equal entries are not always repeated.

The values that follow come from patent US20090274676A1, “COMBINATION OF DEHYDROEPIANDROSTERONE OR DEHYDROEPIANDROSTERONE-SULFATE WITH A PDE-4 INHIBITOR FOR TREATMENT OF ASTHMA OR CHRONIC OBSTRUCTIVE PULMONARY DISEASE” (priority 2003, published 2009).

This data set is described as follows: Emitted dose studies with dry powder inhalers. It counts as physicochemical. Conditions: for Emitted Dose (%): single runs. The method, then: DHEA-S powder was collected in Nephele tubes and assayed by HPLC. Triplicate experiments were performed at each airflow rate for each of the three dry powder inhalers tested (Rotahaler, Diskhaler and IDL's DPI devices). A Nephele tube was fitted at one end with a glass filter (Gelman Sciences, Type A/E, […]), which in turn was connected to the airflow line to collect the emitted dose of the drug from the respective dry powder inhaler being tested. A silicone adapter, with an opening to receive the mouthpiece of the respective dry powder inhaler being tested at the other end of the Nephele tube was secured. A desired airflow, of 30, 60, or 90 L/min, was achieved through the Nephele tube. Each dry powder inhaler's mouthpiece was inserted then into the silicone rubber adapter, and the airflow was continued for about four s after which the tube was removed and an end-cap screwed onto the end of each tube. The end-cap of the tube not containing the filter was removed and 10 ml of an HPLC grade water-acetonitrile solution (1:1) added to the tube, the end-cap reattached, and the tube shaken for 1-2 minutes. The end-cap then was removed from the tube and the solution was transferred to a 10 ml plastic syringe fitted with a filter (Cameo 13N Syringe Filter, Nylon, 0.22 μm). An aliquot of the solution was directly filtered into an HPLC vial for later drug assay via HPLC. […] When the micronized DHEA-S (only vial B used), was weighed for placement into the gelatin capsule or blister, there appeared to be a few aggregates of the micronized powder. […] Table 2 summarizes the results for the Rotahaler experiments at 3 different flow rates, for the Diskhaler experiments at 3 different flow rates, and of the multi-dose experiments at 3 different flow rates.

[1] abbreviates: Diskhaler (2nd study), 87.8 L/min.
The mark [2] stands for this setting: IDL Multi-Dose (2nd study), 87.8 L/min.

Consider `C[C@]12CC[C@H](OS(=O)(=O)[O-])CC1=CC[C@@H]1[C@@H]2CC[C@]2(C)C(=O)CC[C@@H]12.[Na+]` [Anhydrous DHEA-S], for which the “Emitted Dose (%), Average” value stood at 59.1% under setting [1]; 58.6% (Diskhaler, 30 L/min); 68.2% (Diskhaler, 60 L/min); 51.3% (Diskhaler, 87.8 L/min); 84.8% under setting [2]; 85.4% (IDL Multi-Dose, 30 L/min). Also, the “Emitted Dose (%), Average” value (IDL Multi-Dose, 60 L/min) came to 84.0%; the “Emitted Dose (%), Average” value (IDL Multi-Dose, 87.8 L/min) is 72.6%; the “Emitted Dose (%), Average” value (Rotahaler (2nd study), 87.8 L/min) is recorded as 31.5%; the “Emitted Dose (%), Average” value (Rotahaler, 30 L/min) worked out at 34.7%; the “Emitted Dose (%), Average” value (Rotahaler, 60 L/min) is reported as 57.3%; the “Emitted Dose (%), Average” value (Rotahaler, 87.8 L/min) is 69.7%. Also, the “Emitted Dose (%)” value is 57.9% and 59.9% and 59.5% under setting [1]; 53.8% and 53.4% and 68.7% (Diskhaler, 30 L/min); 63.4% and 38.9% and 58.0% (Diskhaler, 60 L/min); 65.7% and 41.6% and 46.5% (Diskhaler, 87.8 L/min); 85.7% and 84.6% and 84.0% under setting [2]; 78.9% and 88.2% and 89.2% (IDL Multi-Dose, 30 L/min). Further, the “Emitted Dose (%)” value is 78.8% and 83.7% and 89.6% (IDL Multi-Dose, 60 L/min); 71.3% and 79.0% and 67.4% (IDL Multi-Dose, 87.8 L/min); 58.1% and 68.2% and 45.7% (Rotahaler, 60 L/min); 73.2% and 67.1% and 68.7% (Rotahaler, 87.8 L/min).
